Source: the supplement of paper PMC10307832

Assays:
Test in all cases: relative viability (nuclei count vs DMSO), 5 days (fraction); higher = more cells survive
[1] = compound: CN(c1ncccc1CNc1nc(Nc2ccc3c(c2)CC(=O)N3)ncc1C(F)(F)F)S(C)(=O)=O + CC(=O)Nc1cccc(-n2c(=O)n(C3CC3)c(=O)c3c(Nc4ccc(I)cc4F)n(C)c(=O)c(C)c32)c1 [Trametinib] (partner 0.02 µM)
How it was run: (§1)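 Each reported value is a median over duplicate plates. It expresses relative viability: treated-well nuclei count divided by vehicle-well nuclei count. Lung cancer cell lines in 1536-well plates were dosed by pin tool a day after seeding, alone with one drug or with a fixed anchor-drug dose plus five library-drug doses (not always all listed) in √10 steps, and nuclei were counted after 5 days.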

[2] = compound: CN(c1ncccc1CNc1nc(Nc2ccc3c(c2)CC(=O)N3)ncc1C(F)(F)F)S(C)(=O)=O + CC1(C)CCC(c2ccc(Cl)cc2)=C(CN2CCN(c3ccc(C(=O)NS(=O)(=O)c4ccc(N[C@H](CCN5CCOCC5)CSc5ccccc5)c(S(=O)(=O)C(F)(F)F)c4)cc3)CC2)C1 [Navitoclax] (partner 0.5 µM)
How it was run: as §1

[3] = compound: CN(c1ncccc1CNc1nc(Nc2ccc3c(c2)CC(=O)N3)ncc1C(F)(F)F)S(C)(=O)=O + N=C(N)NC(=N)NCCc1ccccc1 [Phenformin] (partner 250 µM)
How it was run: as §1

[4] = compound: CN(c1ncccc1CNc1nc(Nc2ccc3c(c2)CC(=O)N3)ncc1C(F)(F)F)S(C)(=O)=O + Nc1nc2[nH]cc(CCc3ccc(C(=O)N[C@@H](CCC(=O)O)C(=O)O)cc3)c2c(=O)[nH]1 [Pemetrexed] (partner 0.2 µM)
How it was run: as §1

Row | Cell Line | relative viability ([1]; first compound 0.01 µM) | relative viability ([1]; first compound 0.03162 µM) | relative viability ([1]; first compound 0.1 µM) | relative viability ([1]; first compound 0.3162 µM) | relative viability ([1]; first compound 1 µM) | relative viability ([2]; first compound 0.01 µM) | relative viability ([2]; first compound 0.03162 µM) | relative viability ([2]; first compound 0.1 µM) | relative viability ([2]; first compound 0.3162 µM) | relative viability ([2]; first compound 1 µM) | relative viability ([3]; first compound 0.01 µM) | relative viability ([3]; first compound 0.03162 µM) | relative viability ([3]; first compound 0.1 µM) | relative viability ([3]; first compound 0.3162 µM) | relative viability ([3]; first compound 1 µM) | relative viability ([4]; first compound 0.01 µM) | relative viability ([4]; first compound 0.03162 µM) | relative viability ([4]; first compound 0.1 µM) | relative viability ([4]; first compound 0.3162 µM) | relative viability ([4]; first compound 1 µM)
1 | NCI-H1975 | 0.358 | 0.348 | 0.461 | 0.342 | 0.315 | 1.01 | 1.12 | 1.11 | 1.01 | 0.854 | 0.386 | 0.41 | 0.377 | 0.392 | 0.311 | 0.296 | 0.283 | 0.275 | 0.296 | 0.288
2 | NCI-H1437 | 0.529 | 0.575 | 0.415 | 0.356 | 0.395 | 1.1 | 1.09 | 1.16 | 0.986 | 0.968 | 0.384 | 0.333 | 0.284 | 0.298 | 0.266 | 0.332 | 0.335 | 0.33 | 0.347 | 0.398
3 | NCI-H2009 | 0.25 | 0.263 | 0.246 | 0.29 | 0.286 | 1.12 | 1.16 | 1.13 | 1.1 | 1.07 | 0.525 | 0.483 | 0.502 | 0.413 | 0.504 | 1.03 | 1 | 0.923 | 1.01 | 0.948
4 | NCI-H1651 | 0.89 | 0.837 | 0.816 | 0.826 | 0.818 | 1.07 | 1 | 1.21 | 0.867 | 0.976 | 0.348 | 0.365 | 0.359 | 0.365 | 0.358 | 0.585 | 0.593 | 0.558 | 0.575 | 0.579
5 | NCI-H1666 | 0.902 | 0.853 | 0.762 | 0.838 | 0.658 | 1.1 | 0.986 | 0.906 | 0.795 | 0.57 | 0.524 | 0.621 | 0.514 | 0.508 | 0.384 | 0.877 | 0.82 | 0.805 | 0.78 | 0.787
6 | NCI-H1734 | 0.602 | 0.661 | 0.663 | 0.719 | 0.539 | 0.894 | 0.937 | 0.824 | 0.866 | 0.707 | 0.395 | 0.395 | 0.375 | 0.4 | 0.415 | 0.421 | 0.379 | 0.395 | 0.421 | 0.439
7 | EPLC-272H | 0.288 | 0.294 | 0.247 | 0.319 | 0.277 | 1.28 | 1.08 | 1.16 | 1.35 | 0.97 | 0.307 | 0.309 | 0.339 | 0.327 | 0.345 | 0.332 | 0.349 | 0.375 | 0.345 | 0.313
8 | NCI-H2023 | 0.52 | 0.539 | 0.6 | 0.426 | 0.52 | 0.998 | 1.1 | 0.985 | 0.938 | 0.837 | 0.451 | 0.45 | 0.416 | 0.314 | 0.408 | 0.181 | 0.241 | 0.221 | 0.228 | 0.214
9 | BEN | 0.954 | 1.19 | 0.92 | 1.02 | 0.869 | 0.0691 | 0.0546 | 0.0649 | 0.0815 | 0.0763 | 0.253 | 0.281 | 0.268 | 0.336 | 0.246 | 0.771 | 0.753 | 0.777 | 0.809 | 0.671
10 | COR-L 105 | 0.459 | 0.419 | 0.453 | 0.479 | 0.445 | 0.773 | 0.833 | 0.869 | 0.777 | 0.493 | 0.46 | 0.493 | 0.45 | 0.418 | 0.492 | 1.09 | 1.06 | 1.07 | 1.11 | 1.05
11 | HCC-15 | 0.344 | 0.378 | 0.35 | 0.35 | 0.336 | 0.716 | 0.745 | 0.639 | 0.579 | 0.507 | 0.492 | 0.501 | 0.463 | 0.384 | 0.405 | 0.22 | 0.237 | 0.218 | 0.21 | 0.215
12 | NCI-H2170 | 0.964 | 0.906 | 0.895 | 0.956 | 0.94 | 0.675 | 0.62 | 0.687 | – | 0.554 | 0.404 | 0.47 | 0.424 | 0.332 | 0.323 | 0.305 | 0.268 | 0.269 | 0.266 | 0.274
13 | PC-3 [JPC-3] | 0.669 | – | 0.712 | 0.696 | 0.554 | 0.821 | 0.863 | 0.823 | 0.833 | 0.787 | 0.522 | 0.488 | 0.505 | 0.471 | 0.481 | 1.02 | – | 1.13 | 1.07 | 1.18
14 | NCI-H1993 | 0.481 | 0.547 | 0.669 | 0.409 | 0.585 | 0.822 | 0.892 | 0.998 | 0.911 | 0.9 | 0.511 | 0.543 | 0.448 | 0.468 | 0.452 | 0.584 | 0.593 | 0.538 | 0.641 | 0.572
15 | NCI-H1915 | 0.288 | 0.293 | 0.293 | 0.315 | 0.29 | 0.803 | 0.849 | 0.786 | 0.765 | 0.728 | 0.386 | 0.379 | 0.365 | 0.368 | 0.36 | 0.528 | 0.569 | 0.455 | 0.517 | 0.538
16 | RERF-LC-KJ | 0.76 | 0.905 | 0.949 | 0.904 | 0.937 | 0.966 | 1.05 | 0.862 | 0.956 | 0.693 | 0.409 | 0.458 | 0.419 | 0.463 | 0.412 | 0.428 | 0.355 | 0.496 | 0.515 | 0.575
